Reference: ChEMBL document CHEMBL1201861, “Genomics of Drug Sensitity in Cancer screening data, Wellcome Trust Sanger Institute”

Assays:
Assay in all cases: cells
BFTC-905 = format: functional, cell-based, Homo sapiens; conditions: Homo sapiens, BFTC-905
Description: SANGER: Inhibition of human BFTC-905 cell growth in a cell viability assay.

NOS-1 = format: functional, cell-based, Homo sapiens; conditions: Homo sapiens, NOS-1;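 also: growth inhibition of the human NOS-1 cell line, read out with a cell viability assay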
Description: SANGER: Inhibition of human NOS-1 cell growth in a cell viability assay.

DOK = format: functional, cell-based, Homo sapiens; conditions: Homo sapiens, DOK;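 also: cell viability assay read-out, values reflect inhibition of cell growth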
Description: SANGER: Inhibition of human DOK cell growth in a cell viability assay.

MFH-ino = format: functional, cell-based; conditions: Homo sapiens;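 also: growth inhibition of human MFH-ino cells, read out by a cell viability assay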
Description: SANGER: Inhibition of human MFH-ino cell growth in a cell viability assay.

OVCAR-8 = format: functional, cell-based, Homo sapiens; conditions: Homo sapiens, OVCAR-8;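 also: growth inhibition of human OVCAR-8 cells, read out by a cell viability assay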
Description: SANGER: Inhibition of human OVCAR-8 cell growth in a cell viability assay.

RT-112 = format: functional, cell-based, Homo sapiens; conditions: Homo sapiens, RT-112
MSTO-211H = format: functional, cell-based, Homo sapiens; conditions: Homo sapiens, MSTO-211H
Description: SANGER: Inhibition of human MSTO-211H cell growth in a cell viability assay.

Hs-578T = format: functional, cell-based, Homo sapiens; conditions: Homo sapiens, Hs-578T
Description: SANGER: Inhibition of human Hs-578-T cell growth in a cell viability assay.

Panc1005 = format: functional, cell-based, Homo sapiens; conditions: Homo sapiens, Panc1005;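 also: growth inhibition of human PANC-10-05 cells, measured by a cell viability assay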
Description: SANGER: Inhibition of human PANC-10-05 cell growth in a cell viability assay.

SK-MEL-28 = format: functional, cell-based; conditions: Homo sapiens;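 also: growth inhibition of human SK-MEL-28 cells, read out with a cell viability assay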
Description: SANGER: Inhibition of human SK-MEL-28 cell growth in a cell viability assay.

KYSE-450 = format: functional, cell-based; conditions: Homo sapiens;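 also: cell growth inhibition measured by a viability assay in human KYSE-450 cells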
Description: SANGER: Inhibition of human KYSE-450 cell growth in a cell viability assay.

AU565 = format: functional, cell-based, Homo sapiens; conditions: Homo sapiens, AU565;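 also: cell viability assay measuring growth inhibition of human AU565 cells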
Description: SANGER: Inhibition of human AU565 cell growth in a cell viability assay.

COLO-792 = format: functional, cell-based, Homo sapiens; conditions: Homo sapiens, COLO-792
Description: SANGER: Inhibition of human COLO-792 cell growth in a cell viability assay.

COLO-680N = format: functional, cell-based, Homo sapiens; conditions: Homo sapiens, COLO-680N;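 also: cell viability assay used to measure inhibition of COLO-680N cell growth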
Description: SANGER: Inhibition of human COLO-680N cell growth in a cell viability assay.

KYSE-140 = format: functional, cell-based, Homo sapiens; conditions: Homo sapiens, KYSE-140;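 also: cell viability assay measuring growth inhibition in human KYSE-140 cells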
Description: SANGER: Inhibition of human KYSE-140 cell growth in a cell viability assay.

KYSE-150 cell line = format: functional, cell-based, Homo sapiens; conditions: Homo sapiens, KYSE-150;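 also: growth inhibition of human KYSE-150 cells, read out with a cell viability assay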
Description: SANGER: Inhibition of human KYSE-150 cell growth in a cell viability assay.

CTB-1 = format: functional, cell-based; conditions: Homo sapiens
Description: SANGER: Inhibition of human CTB-1 cell growth in a cell viability assay.

NCI-H2030 = format: functional, cell-based, Homo sapiens; conditions: Homo sapiens, NCI-H2030;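 also: growth inhibition of human NCI-H2030 cells, read out by a cell viability assay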
Description: SANGER: Inhibition of human NCI-H2030 cell growth in a cell viability assay.

DMS-114 = format: functional, cell-based, Homo sapiens; conditions: Homo sapiens, DMS-114
AM-38 = format: functional, cell-based, Homo sapiens; conditions: Homo sapiens, AM-38;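 also: growth inhibition of AM-38 cells of human origin, read out by a cell viability assay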
NCI-H1793 = format: functional, cell-based, Homo sapiens; conditions: Homo sapiens, NCI-H1793;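 also: cell growth inhibition, read out by a cell viability assay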
Description: SANGER: Inhibition of human NCI-H1793 cell growth in a cell viability assay.

CAPAN-1 = format: functional, cell-based, Homo sapiens; conditions: Homo sapiens, CAPAN-1;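 also: growth suppression of CAPAN-1 cells, read out by a cell viability assay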
Description: SANGER: Inhibition of human CAPAN-1 cell growth in a cell viability assay.

BXPC-3 = format: functional, cell-based, Homo sapiens; conditions: Homo sapiens, BXPC-3;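 also: growth inhibition of human BxPC-3 cells, read out by a cell viability assay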
Description: SANGER: Inhibition of human BxPC-3 cell growth in a cell viability assay.

MDA-MB-231 = format: functional, cell-based, Homo sapiens; conditions: Homo sapiens, MDA-MB-231
Description: SANGER: Inhibition of human MDA-MB-231 cell growth in a cell viability assay.

SF-268 = format: functional, cell-based, Homo sapiens; conditions: Homo sapiens, SF-268;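 also: growth inhibition of SF-268 cells determined with a cell viability assay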
Description: SANGER: Inhibition of human SF268 cell growth in a cell viability assay.

HOP-62 = format: functional, cell-based, Homo sapiens; conditions: Homo sapiens, HOP-62;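 also: cell growth inhibition determined with a viability assay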
Description: SANGER: Inhibition of human HOP-62 cell growth in a cell viability assay.

HCC1419 = format: functional, cell-based, Homo sapiens; conditions: Homo sapiens, HCC1419;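 also: growth inhibition of human HCC1419 cells, read out as cell viability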
Description: SANGER: Inhibition of human HCC1419 cell growth in a cell viability assay.

HCC2157 = format: functional, cell-based; conditions: Homo sapiens;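 also: growth inhibition of the cancer cell line, read out as cell viability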
Description: SANGER: Inhibition of human HCC2157 cell growth in a cell viability assay.

DSH1 = format: functional, cell-based, Homo sapiens; conditions: Homo sapiens, DSH1;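 also: growth inhibition of human DSH1 cells, measured with a cell viability readout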
Description: SANGER: Inhibition of human DSH1 cell growth in a cell viability assay.

PANC-08-13 = format: functional, cell-based, Homo sapiens; conditions: Homo sapiens, PANC-08-13;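 also: cell growth inhibition, measured with a cell viability assay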
Description: SANGER: Inhibition of human PANC-08-13 cell growth in a cell viability assay.

SW48 = format: functional, cell-based, Homo sapiens; conditions: Homo sapiens, SW48;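 also: growth inhibition of SW48 cells, read out with a cell viability assay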
Description: SANGER: Inhibition of human SW48 cell growth in a cell viability assay.

RCC10RGB = format: functional, cell-based, Homo sapiens; conditions: Homo sapiens, RCC10RGB;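 also: growth inhibition of human RCC10RGB cells, read out by a cell viability assay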
Description: SANGER: Inhibition of human RCC10RGB cell growth in a cell viability assay.

KM-H2 = format: functional, cell-based; conditions: Homo sapiens;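 also: growth inhibition of KM-H2 cells, read out by a cell viability assay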
Description: SANGER: Inhibition of human KM-H2 cell growth in a cell viability assay.

OVCAR-4 = format: functional, cell-based, Homo sapiens; conditions: Homo sapiens, OVCAR-4;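 also: growth inhibition of human OVCAR-4 cells, measured with a cell viability assay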
Description: SANGER: Inhibition of human OVCAR-4 cell growth in a cell viability assay.

SKG-IIIa = format: functional, cell-based, Homo sapiens; conditions: Homo sapiens, SKG-IIIa;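 also: cell growth inhibition, read out with a cell viability assay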
Description: SANGER: Inhibition of human SKG-IIIa cell growth in a cell viability assay.

NCI-H2228 = format: functional, cell-based, Homo sapiens; conditions: Homo sapiens, NCI-H2228;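 also: growth inhibition of human NCI-H2228 cells, read out by a cell viability assay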
Description: SANGER: Inhibition of human NCI-H2228 cell growth in a cell viability assay.

HT1197 = format: functional, cell-based, Homo sapiens, HT-1197; conditions: Homo sapiens, HT1197
Description: SANGER: Inhibition of human HT-1197 cell growth in a cell viability assay.

ES3 = format: functional, cell-based, Homo sapiens; conditions: Homo sapiens, ES3;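 also: growth inhibition of ES3 cells, read out with a cell viability assay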
NCI-H2170 = format: functional, cell-based, Homo sapiens; conditions: Homo sapiens, NCI-H2170;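 also: cell viability assay measuring growth inhibition of human NCI-H2170 cancer cells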
Description: SANGER: Inhibition of human NCI-H2170 cell growth in a cell viability assay.

HEC-1 = format: functional, cell-based, Homo sapiens; conditions: Homo sapiens, HEC-1;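 also: growth inhibition of the cell line, read out with a cell viability assay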
Description: SANGER: Inhibition of human HEC-1 cell growth in a cell viability assay.

LCLC-103H cell line = format: functional, cell-based, Homo sapiens; conditions: Homo sapiens, LCLC-103H
Description: SANGER: Inhibition of human LCLC-103H cell growth in a cell viability assay.

NOMO-1 = format: functional, cell-based; conditions: Homo sapiens;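 also: growth inhibition of human NOMO-1 cells measured by a cell viability assay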
A2780 = format: functional, cell-based, Homo sapiens; conditions: Homo sapiens, A2780;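 also: growth inhibition of A2780 cells, read out with a cell viability assay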
Description: SANGER: Inhibition of human A2780 cell growth in a cell viability assay.

LS-123 = format: functional, cell-based, Homo sapiens; conditions: Homo sapiens, LS-123
JAR = format: functional, cell-based, Homo sapiens; conditions: Homo sapiens, JAR;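 also: growth inhibition of human JAR cells determined with a cell viability assay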
HuO-3N1 = format: functional, cell-based, Homo sapiens; conditions: Homo sapiens, HuO-3N1;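 also: cell viability readout used to measure how strongly compounds suppress proliferation of human HuO-3N1 cells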
Description: SANGER: Inhibition of human HuO-3N1 cell growth in a cell viability assay.

H4 = format: functional, cell-based; conditions: Homo sapiens
Description: SANGER: Inhibition of human H4 cell growth in a cell viability assay.

ES4 = format: functional, cell-based, Homo sapiens; conditions: Homo sapiens, ES4;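 also: growth inhibition of human ES4 cells, read out by a cell viability assay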
Description: SANGER: Inhibition of human ES4 cell growth in a cell viability assay.

CAL-72 = format: functional, cell-based, Homo sapiens; conditions: Homo sapiens, CAL-72;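 also: cell viability assay measuring inhibition of proliferation in the CAL-72 cell line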
Description: SANGER: Inhibition of human CAL-72 cell growth in a cell viability assay.

SK-MEL-2 = format: functional, cell-based, Homo sapiens; conditions: Homo sapiens, SK-MEL-2
Description: SANGER: Inhibition of human SK-MEL-2 cell growth in a cell viability assay.

Cn1cncc1[C@@](N)(c1ccc(Cl)cc1)c1ccc2c(c1)c(-c1cccc(Cl)c1)cc(=O)n2C [TIPIFARNIB]
IC50 (BFTC-905): 1.88 µM
IC50 (NOS-1): 2.13 µM
IC50 (DOK): > 16 µM
IC50 (MFH-ino): 0.815 µM
IC50 (OVCAR-8): 4.45 µM
IC50 (RT-112): 0.382 µM
IC50 (MSTO-211H): > 16 µM
IC50 (Hs-578T): > 16 µM
IC50 (Panc1005): 5.05 µM
IC50 (SK-MEL-28): > 16 µM
IC50 (KYSE-450): 0.729 µM
IC50 (AU565): 1.79 µM
IC50 (COLO-792): 12.2 µM
IC50 (COLO-680N): 5.63 µM
IC50 (KYSE-140): 1.11 µM
IC50 (KYSE-150 cell line): 6.2 µM
IC50 (CTB-1): 7.81 µM
IC50 (NCI-H2030): 2.35 µM
IC50 (DMS-114): > 16 µM
IC50 (AM-38): > 16 µM
IC50 (NCI-H1793): > 16 µM
IC50 (CAPAN-1): > 16 µM
IC50 (BXPC-3): 4.33 µM
IC50 (MDA-MB-231): 5.83 µM
IC50 (SF-268): 8.07 µM
IC50 (HOP-62): 3.21 µM
IC50 (HCC1419): 4.65 µM
IC50 (HCC2157): 0.323 µM
IC50 (DSH1): 8.53 µM
IC50 (PANC-08-13): > 16 µM
IC50 (SW48): 8.61 µM
IC50 (RCC10RGB): 8.49 µM
IC50 (KM-H2): > 16 µM
IC50 (OVCAR-4): 2.21 µM
IC50 (SKG-IIIa): > 16 µM
IC50 (NCI-H2228): 4.98 µM
IC50 (HT1197): 11.7 µM
IC50 (ES3): 11.8 µM
IC50 (NCI-H2170): 8.39 µM
IC50 (HEC-1): 7.15 µM
IC50 (LCLC-103H cell line): 0.129 µM
IC50 (NOMO-1): > 16 µM
IC50 (A2780): 3.3 µM
IC50 (LS-123): 2.11 µM
IC50 (JAR): > 16 µM
IC50 (HuO-3N1): 4.17 µM
IC50 (H4): 1.22 µM
IC50 (ES4): 1.28 µM
IC50 (CAL-72): 4.95 µM
IC50 (SK-MEL-2): 0.484 µM

CN(c1ncccc1CNc1nc(Nc2ccc3c(c2)CC(=O)N3)ncc1C(F)(F)F)S(C)(=O)=O [PF-00562271]
IC50 (BFTC-905): > 2.56 µM
IC50 (NOS-1): > 2.56 µM
IC50 (DOK): > 2.56 µM
IC50 (MFH-ino): > 2.56 µM
IC50 (OVCAR-8): > 2.56 µM
IC50 (RT-112): 0.985 µM
IC50 (MSTO-211H): > 2.56 µM
IC50 (Hs-578T): > 2.56 µM
IC50 (Panc1005): > 2.56 µM
IC50 (SK-MEL-28): > 2.56 µM
IC50 (KYSE-450): > 2.56 µM
IC50 (AU565): > 2.56 µM
IC50 (COLO-792): > 2.56 µM
IC50 (COLO-680N): > 2.56 µM
IC50 (KYSE-140): > 2.56 µM
IC50 (KYSE-150 cell line): 1.35 µM
IC50 (CTB-1): > 2.56 µM
IC50 (NCI-H2030): > 2.56 µM
IC50 (DMS-114): > 2.56 µM
IC50 (AM-38): > 2.56 µM
IC50 (NCI-H1793): > 2.56 µM
IC50 (CAPAN-1): > 2.56 µM
IC50 (BXPC-3): 2.35 µM
IC50 (MDA-MB-231): 2.5 µM
IC50 (SF-268): > 2.56 µM
IC50 (HOP-62): > 2.56 µM
IC50 (HCC1419): > 2.56 µM
IC50 (HCC2157): > 2.56 µM
IC50 (DSH1): > 2.56 µM
IC50 (PANC-08-13): > 2.56 µM
IC50 (SW48): > 2.56 µM
IC50 (RCC10RGB): 2.33 µM
IC50 (KM-H2): > 2.56 µM
IC50 (OVCAR-4): > 2.56 µM
IC50 (SKG-IIIa): > 2.56 µM
IC50 (NCI-H2228): > 2.56 µM
IC50 (HT1197): > 2.56 µM
IC50 (ES3): > 2.56 µM
IC50 (NCI-H2170): > 2.56 µM
IC50 (HEC-1): > 2.56 µM
IC50 (LCLC-103H cell line): 1.56 µM
IC50 (NOMO-1): > 2.56 µM
IC50 (A2780): > 2.56 µM
IC50 (LS-123): > 2.56 µM
IC50 (JAR): > 2.56 µM
IC50 (HuO-3N1): > 2.56 µM
IC50 (H4): > 2.56 µM
IC50 (ES4): > 2.56 µM
IC50 (CAL-72): > 2.56 µM
IC50 (SK-MEL-2): > 2.56 µM

Cc1ccc(Nc2nccc(N(C)c3ccc4c(C)n(C)nc4c3)n2)cc1S(N)(=O)=O [PAZOPANIB]
IC50 (BFTC-905): > 8 µM
IC50 (NOS-1): 0.66 µM
IC50 (DOK): > 8 µM
IC50 (MFH-ino): > 8 µM
IC50 (OVCAR-8): > 8 µM
IC50 (RT-112): 1.1 µM
IC50 (MSTO-211H): > 8 µM
IC50 (Hs-578T): > 8 µM
IC50 (Panc1005): > 8 µM
IC50 (SK-MEL-28): > 8 µM
IC50 (KYSE-450): > 8 µM
IC50 (AU565): > 8 µM
IC50 (COLO-792): > 8 µM
IC50 (COLO-680N): > 8 µM
IC50 (KYSE-140): > 8 µM
IC50 (KYSE-150 cell line): > 8 µM
IC50 (CTB-1): > 8 µM
IC50 (NCI-H2030): > 8 µM
IC50 (DMS-114): > 8 µM
IC50 (AM-38): > 8 µM
IC50 (NCI-H1793): > 8 µM
IC50 (CAPAN-1): > 8 µM
IC50 (BXPC-3): > 8 µM
IC50 (MDA-MB-231): > 8 µM
IC50 (SF-268): > 8 µM
IC50 (HOP-62): > 8 µM
IC50 (HCC1419): > 8 µM
IC50 (HCC2157): > 8 µM
IC50 (DSH1): > 8 µM
IC50 (PANC-08-13): > 8 µM
IC50 (SW48): > 8 µM
IC50 (RCC10RGB): > 8 µM
IC50 (KM-H2): > 8 µM
IC50 (OVCAR-4): > 8 µM
IC50 (SKG-IIIa): > 8 µM
IC50 (NCI-H2228): > 8 µM
IC50 (HT1197): > 8 µM
IC50 (ES3): > 8 µM
IC50 (NCI-H2170): > 8 µM
IC50 (HEC-1): > 8 µM
IC50 (LCLC-103H cell line): 1.45 µM
IC50 (NOMO-1): > 8 µM
IC50 (A2780): > 8 µM
IC50 (LS-123): > 8 µM
IC50 (JAR): > 8 µM
IC50 (HuO-3N1): > 8 µM
IC50 (H4): 2.51 µM
IC50 (ES4): > 8 µM
IC50 (CAL-72): 5.94 µM
IC50 (SK-MEL-2): > 8 µM
